Source: patent publication US20260048072A1, “PHARMACEUTICAL PREPARATION FOR INTRANASAL ADMINISTRATION AND PREPARATION METHOD THEREFOR” (CHENGDU EASTON BIOPHARMACEUTICALS CO., LTD., priority 2023, published 2026)

What was measured:
Format in all cases: in vivo
Conditions in all cases: beagle dogs, nasal spray, result in words
[1] = Experimental Example 4: pharmacokinetic experiment, nalmefene in plasma by LC-MS/MS
Excerpt: Beagle dogs (body weight of 8 kg-10 kg, supplier: Suzhou Xishan Zhongke Experimental Animal Co., Ltd. and Chengdu Dossy Experimental Animal Co., Ltd., license numbers: SCXK(Su)2018-0001 and SCXK(1)2019-031)
(§1) • EDTA-K2 anticoagulant tube: brand Kangweishi (KWS) • Liquid chromatograph (Shimadzu, LC-30AD), mass spectrometer (SCIEX Triple Quad 4500) • LC-MS/MS detection conditions: • Instrument: UPLC-MS/MS (AB API 4500) • MS conditions: Electrospray ionization (ESI) source, positive ion detection
(§2) HPLC conditions: mobile phase A: 90% water+10% acetonitrile+0.1% formic acid+2 mM ammonium acetate; mobile phase B: 90% acetonitrile+10% water+0.1% formic acid+2 mM ammonium acetate; chromatographic column: Waters ACQUITY UPLC BEH C18 (2.1×50 mm, 1.7 μm); flow rate: 0.50 mL/min; chromatographic column temperature: 40° C.
(§3) Experimental method of nasal administration for Example 9: Four beagle dogs were administered with 1 dose of a nasal spray preparation of nalmefene hydrochloride by nasal spray respectively, and 2 mL of blood was collected from the forelimb vein before administration and at 2 min, 5 min, 10 min, 15 min, 30 min, 45 min, 1 h, 2 h, 4 h and 6 h after administration. […] The content of nalmefene in the plasma was detected by LC-MS/MS. […]

[2] = Experimental Example 2: pharmacokinetic experiment, nalmefene in plasma by LC-MS/MS
Excerpt: Beagle dogs (body weight of 12 kg-15 kg, supplier: Suzhou Xishan Zhongke Experimental Animal Co., Ltd., license number: SCXK(Su)2018-0001)
• EDTA-K2 anticoagulant tube: brand Kangweishi (KWS) • Liquid chromatograph (Shimadzu, LC-30AD), mass spectrometer (SCIEX Triple Quad 4500) • LC-MS/MS detection conditions: • Instrument: UPLC-MS/MS (AB API 4500) • MS conditions: Electrospray ionization (ESI) source, positive ion detection […]
as §3, with “1:” for “9:”
Experimental method of intramuscular injection for Comparative Example 2: Four beagle dogs were administered 1 dose of an injection of nalmefene hydrochloride (1.5 ml: 1.5 mg) intramuscularly respectively, and 2 mL of blood was collected from the forelimb vein before administration and at 2 min, 5 min, 10 min, 15 min, 30 min, 45 min, 1 h, 2 h, 4 h and 6 h after administration. […] The content of nalmefene in the plasma was detected by LC-MS/MS.

[3] = Experimental Example 3: pharmacokinetic experiment, nalmefene in plasma by LC-MS/MS
Protocol: Beagle dogs (body weight of 8 kg-10 kg, supplier: Chengdu Dossy Experimental Animal Co., Ltd., license number: SCXK(1)2019-031)
as §1, §2
as §3, with “3:” for “9:”, “administration. The blood sample was placed in an EDTA-K2 anticoagulant tube, centrifuged at 4500 r/min for 10 min, and 50 μL of plasma was separated into a centrifuge tube.” for “administration.”

effect to accelerate the absorption of nalmefene hydrochloride in the nasal cavity compared with n-dodecyl-β-D-maltoside [1]: superior
absorption of nalmefene hydrochloride in the nasal cavity, compared with not using dodecylphosphocholine [2]: significantly accelerate
effect to accelerate the absorption of nalmefene hydrochloride in the nasal cavity compared with n-dodecyl-β-D-maltoside [3]: superior
Compound: CCCCCCCCCCCCOP(=O)([O-])OCC[N+](C)(C)C [dodecylphosphocholine, Dodecylphosphocholine]
